Data: PubChem BioAssay (NCI)
Several values for one entry are separate records, joined by “and”; a condition that tells them apart may be missing. Equal values may be shown once.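 48-hour exposure; five concentrations; linearly interpolated endpoints. GI50 = concentration required for 50% inhibition of growth. TGI marks complete inhibition of growth.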

Tests used:
Test in all cases: growth of human tumour cells (NCI), 48 h
SNB-78 CNS = system: SNB-78 CNS
HL-60(TB) leukemia = system: HL-60(TB) leukemia
LXFL 529 NSCLC = system: LXFL 529 NSCLC
NCI-H522 lung = system: NCI-H522 lung
RPMI-8226 leukemia = system: RPMI-8226 leukemia
SF-268 CNS = system: SF-268 CNS
SF-295 CNS = system: SF-295 CNS
RXF 393 renal = system: RXF 393 renal
EKVX NSCLC = system: EKVX NSCLC
MDA-MB-435 = system: MDA-MB-435

| Compound | TGI (SNB-78 CNS) | TGI (HL-60(TB) leukemia) | TGI (LXFL 529 NSCLC) | TGI (NCI-H522 lung) | TGI (RPMI-8226 leukemia) | TGI (SF-268 CNS) | TGI (SF-295 CNS) | TGI (RXF 393 renal) | TGI (EKVX NSCLC) | TGI (MDA-MB-435) | GI50 (MDA-MB-435) |
| --- | --- | --- | --- | --- | --- | --- | --- | --- | --- | --- | --- |
| Nc1n[nH]c(=O)c2c1c(Br)cn2C1OC(CO)C(O)C1O (stereo not given) | > 80.5 µM | 1.03 µM | > 100 µM | 25.2 µM | 22.5 µM | 55.4 µM | > 90.2 µM | 10.3 µM | 39.5 µM |  |  |
| CC/C(=C(\c1ccccc1)c1ccc(OCC[N+](C)(C)C)cc1)c1ccccc1 | 34.3 µM | 6.13 µM | 24.6 µM | 18.7 µM | 28.8 µM | 32.4 µM | 33.8 µM | 36.9 µM | 33 µM |  |  |
| CC(=O)/C=C\C(=O)NNS(=O)(=O)c1ccc(C)cc1 | > 100 µM | > 100 µM | > 100 µM | > 100 µM | > 100 µM | > 100 µM | > 100 µM | > 100 µM | > 100 µM |  |  |
| O=C1OC2C(O)COC2(OCc2c[nH]c3ccccc23)C1O (stereo not given) (tested in a mixture with another compound) | > 100 µM | > 100 µM | > 100 µM | > 100 µM | > 100 µM | > 100 µM | > 100 µM | > 100 µM | > 100 µM |  |  |
| O=C1c2ccccc2CC1C1(O)C(=O)Nc2c(Cl)cc(Cl)cc21 (stereo not given) | > 100 µM | 96.4 µM | > 100 µM | 47.3 µM | > 100 µM | > 100 µM | > 100 µM | 85.8 µM | > 100 µM |  |  |
| CC1CCCC2(O1)OC1CC(=O)OC1C1=C2C(=O)c2ccccc2C1=O (stereo not given) | 4.85 µM | 3.48 µM | 2.76 µM | 3.65 µM | 4.27 µM | 14.9 µM | 32 µM | 4.14 µM | 14.2 µM |  |  |
| CC[N+]1(C)CCC(O)(/C=C/c2ccccc2)C(C(=O)/C=C/c2ccccc2)C1 (stereo not given) | > 78.7 µM | 8.48 µM | 6.7 µM | 3.78 µM | 5.76 µM | 60.5 µM | 33.4 µM | 19.7 µM | 51.6 µM | 31.7 µM |  |
| CC(=O)NC(Cc1ccccc1)C(=S)N1CCCC1 (stereo not given) | > 100 µM | > 100 µM | > 100 µM | > 100 µM | > 100 µM | > 100 µM | > 100 µM | > 100 µM | > 100 µM |  |  |
| CCN(CC)CC(C(=O)Nc1c(C)cccc1C)/C(C)=N/NC(N)=S (stereo not given) | > 100 µM | > 100 µM | > 100 µM | > 100 µM | > 100 µM | > 100 µM | > 100 µM | > 100 µM | > 100 µM |  |  |
| O=c1[nH]c2cccccc-2c1-c1nc2ccccc2[nH]1 | > 100 µM | > 100 µM | > 100 µM | 42.3 µM | > 100 µM | 45.3 µM | > 100 µM | 45.6 µM | > 100 µM |  |  |
| O=C(NC(c1ccccc1)C(O)C(=O)OCc1ccc2c(c1)C(=O)c1ccccc1C2=O)c1ccccc1 (stereo not given) | > 92.4 µM | > 100 µM | > 100 µM | 63.6 µM | > 68.1 µM | 70.1 µM | 69.4 µM | 8.57 µM | > 83.1 µM | > 100 µM |  |
| COc1cccc2c1C(=N)c1c(O)c3c(c(O)c1C2=O)C[C@@](O)(C(C)=O)C[C@@H]3OC1CC(N)C(O)C(C)O1 (stereo not given in full) | 8.68 µM and 18.9 µM | 0.287 µM and 0.192 µM | 3.54 µM | 2.4 µM and 1.13 µM and 1.91 µM |  | 3.07 µM and 4.61 µM and 5.69 µM |  | 2.95 µM and 3.8 µM and 0.872 µM | 3.82 µM and 7.64 µM and 2.29 µM | 4.47 µM | 1.1 µM |
